Laboratory results: patent US20100022639A1, “Methods of Inducing Weight Loss” (The Johns Hopkins University School of Medicine Licensing …, priority 2000, published 2010)

What was measured:
[1] = test system: liver and white adipose tissue; assay: Histology of liver and white adipose tissue of treated ob/ob mice; type: in vivo
Source text: C-75 treatment not only led to weight loss, but also corrected many of the pathological consequences that result from the extreme obesity of ob/ob mice. Liver samples from vehicle and C-75 treated mice (from FIG. 3B) were fixed in formalin and paraffin embedded. Tissue sections (4 μm) were stained with hematoxylin and eosin. […] The observation that C-75 acts through a leptin independent mechanism is particularly promising in that the majority of obese individuals appear to be relatively resistant to leptin's effects (Caro, et al., 1996, Lancet, 348:159).

[2] = test system: feeding behavior; assay: Food intake after a single IP injection (metabolic cages); type: in vivo, BALB/c mice; details: 15 mg/kg, first 24 hours
Experimental: Male BALB/c mice 19-22 g were weighed, treated by a single intra peritoneal (I.P.) injection and housed in metabolic cages. Body weight (FIG. 1.2A) and food intake (FIG. 1.2B) were monitored at 24 hour intervals.
Inhibitors of fatty acid synthesis would be expected to prevent triglyceride accumulation due to inhibition of de novo fatty acid synthesis and impact body weight in this manner. […] However, the dramatic C-75-induced weight loss cannot be accounted for by a blockade of fatty acid/triglyceride biosynthesis. Rather, the weight loss observed in response to C-75 treatment results primarily from an inhibition of feeding. The loss of adipose mass was accompanied by a reduction of lean body mass typical of that observed in fasting. Administration of 15 mg/kg body weight led to a greater than 90% reduction in food intake over the first 24 hours (FIG. 1.2B). Feeding behavior then returned to normal progressively over a 48-72 hour period as the drug effect dissipated. The role of feeding inhibition in C-75 induced weight loss was confirmed by studies in which forced feeding of the drug treated animals largely reversed the observed weight loss.

[3] = test system: adipose fatty acid synthesis; assay: [U-14C]-acetate labeling of adipose tissue from C-75-treated mice; type: in vivo, BALB/c mice
Experimental: Female BALB/c mice were treated with 0.6 mg of C-75 in 200 μl RPMI, or vehicle control IP (3 per group). After 3 hours, the animals were killed and approximately 5 mg of adipose tissue was labeled with [U-^14C]-acetate, lipids were extracted and counted, [A. Rashid et al., Am. J. Pathol. 150 (1997)]. […] Values represent mean +/−SEM (*P<0.05).
(§1) Male BALB/c mice (4 per group) were given 2 g/kg dextrose by oral gavage. After 15 min mice were injected IP with 20 mg/kg C-75 or RPMI vehicle. One hour post-treatment, livers were rapidly removed, frozen and pulverized in liquid nitrogen, HC104 extracted and assayed for malonyl-CoA [J. D. McGarry, M. J. Stark, D. W. Foster., J. Biol. Chem 253, 8291 (1978)]. Intraperitoneal injection of mice with C-75 leads to a 95% reduction in ^14C-acetate incorporation into fatty acids and to a 110% increase in the level of hepatic malonyl-CoA, the principal substrate of FAS. Experiments described in panels B and C were repeated twice.

[4] = test system: leptin; assay: Serum leptin ELISA; type: in vivo, BALB/c mice; details: 30 mg/kg IP, 24 hours
Source text: One of the primary signals modulating NPY function in feeding control is leptin. This hormone is elevated in the fed state and inhibits NPY production and feeding (Schwartz, et al., 1996, Diabetes, 45:531) in a manner similar to that observed with C-75 treatment. Leptin was an attractive candidate as its primary site of production, white adipose tissue (Zhang, et al., 1994, Nature, 372:425), is a site of fatty acid synthesis and expresses high levels of FAS. To test for increased leptin release as the signal mediating C-75 regulation of NPY, serum leptin levels were assessed in fed (end of light cycle) fasted and C-75-treated mice. BALB/c mice treated with RPMI vehicle (o) or 30 mg/kg C-75 (▪) I.P. and free fed, or fasted ([…]) for 24 hours were weighed, decapitated and exsanguinated. Serum leptin levels were determined using a QUANTIKINE™ murine leptin ELISA (R&D Systems) and plotted against total body weight (FIG. 3A). […] This reduction correlates with the reduction in body weight, presumably body fat, resulting from C-75 treatment FIG. 3A). […] Northern blot analysis of leptin message levels in white adipose tissue from the same animals (performed as described above) supports this observation (data not shown).

[5] = Weight loss of C-75-treated versus fasted mice; type: in vivo, BALB/c mice; details: 30 mg/kg, 24 hours, n=7
Source text: To determine whether the weight loss is attributable entirely to suppression of feeding, treatment with a dose of C-75 that completely suppresses feeding was compared with fasting. Both fasting and C-75 led to significant weight loss relative to control; however, in many experiments the C-75 treated mice lost more weight than did the fasted animals (FIG. 2A). The normal response to fasting is to reduce energy utilization to limit depletion of energy stores (Loftus, 1999). If C-75 treatment results in a “perceived fed state”, it may allow maintenance of a normal metabolic rate as well as inhibition of feeding.
Male BALB/c mice 19-21 g were preweighed and treated with vehicle or 30 mg/kg C-75 and allowed free access to food, or were denied all access to food (fasted). After 24 hours, mice were weighed. Change from initial body weight is shown in FIG. 2A, expressed as mean +/±SEM (n=7). C-75 treated mice lost 45% more weight than did the fasted animals.

[6] = Weight loss in mice lacking IL-1r and TNFαr1a receptors; details: mouse, in vivo
Source text: Alternatively, the signal from the FAS target tissue to the hypothalamus may be mediated by a humoral signal. This FAS-associated signal appears to be independent of the systemic release of the known feeding inhibitory hormones leptin and insulin, and the pro-inflammatory cytokines tumor necrosis factor-α and interleukin-1β. Nor is it reversed by administration of dexamethasone, a synthetic glucocorticoid.

[7] = test system: hepatic malonyl-CoA; assay: Hepatic malonyl-CoA level after dextrose gavage and IP C-75; type: in vivo, BALB/c mice; details: 20 mg/kg IP, one hour post-treatment, after 2 g/kg dextrose
Experimental: as §1

## C=C1C(=O)OC(CCCCCCCC)C1C(=O)O (stereo not shown) [C-75]
[1]; 14 days treatment
  liver histology (hepatomegaly and fatty liver): marked reduction in the hepatomegaly and fatty liver
[1]; 14 days treatment (not shown)
  mean adipocyte size in white adipose tissue: dramatic reduction in mean adipocyte size
[1]; liver and white adipose tissue
  histological abnormality from chronic treatment: no evidence of histological abnormality
[2]
  reduction in food intake: greater than 90%
[3]; 0.6 mg C-75 IP, 3 hours, female BALB/c mice
  adipose fatty acid synthesis compared to vehicle control: markedly inhibited
[3]; intraperitoneal injection
  reduction in 14C-acetate incorporation into fatty acids: 95%
[4]
  serum leptin levels: reduction in leptin levels
[5]
  more weight lost than fasted animals: 45%
[6]
  weight loss in mice lacking IL-1r and TNFαr1a receptors: weight loss was observed
[7]
  increase in the level of hepatic malonyl-CoA: 110%
